For this series, the system named is rumen fluid.

Marks after values point to notes of the source that are not given here.

Take `CSCCC(N)C(=O)O` (centres unmarked) [D, L Met, D,L Methionine]: the “Supplemental Methionine Recovered” value is given as 12.25^c %. The “MOEFF (microbial efficiency)” value (continuous culture fermenters, .045 g/d supplement with 45 g/d soyhulls) is reported as 9.11 grams of bacterial nitrogen per kilogram organic matter fermented.

The values are drawn from patent publication US8062681B2, “Amino acid oligomer dietary supplement” (The Curators Of The University Of Missouri, priority 2006, dated 2011).
